Laboratory results from ChEMBL document CHEMBL5038618, “Discovery of PT-65 as a highly potent and selective Proteolysis-targeting chimera degrader of GSK3 for treating Alzheimer's disease” (Eur J Med Chem, 2021).
The source made the active and inactive calls. The rule behind the calls is not given here.

Assays:
[1] = biological target: Protein cereblon/Glycogen synthase kinase-3 beta (Homo sapiens, UniProt P49841+Q96SW2); assay: Protac activity at CRBN/GSK3beta in human SH-SY5Y cells assessed as induction of GSK3beta degradation at 1 uM measured after 24 hrs; type: cell-based
Sequence of Protein cereblon/Glycogen synthase kinase-3 beta (P49841 whole entry, looked up): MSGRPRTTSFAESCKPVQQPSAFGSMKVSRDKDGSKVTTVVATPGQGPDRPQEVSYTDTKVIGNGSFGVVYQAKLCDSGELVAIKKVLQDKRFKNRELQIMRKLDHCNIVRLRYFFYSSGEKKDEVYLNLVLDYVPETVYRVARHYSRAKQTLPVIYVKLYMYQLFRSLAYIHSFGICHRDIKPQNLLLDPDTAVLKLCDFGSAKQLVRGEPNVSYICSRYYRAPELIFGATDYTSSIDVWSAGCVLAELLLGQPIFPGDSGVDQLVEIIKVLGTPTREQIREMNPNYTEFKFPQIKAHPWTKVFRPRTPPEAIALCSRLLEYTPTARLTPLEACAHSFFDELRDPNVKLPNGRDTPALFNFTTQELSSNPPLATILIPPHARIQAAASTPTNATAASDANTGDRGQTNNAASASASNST
Sequence of Protein cereblon/Glycogen synthase kinase-3 beta (Q96SW2 whole entry, looked up): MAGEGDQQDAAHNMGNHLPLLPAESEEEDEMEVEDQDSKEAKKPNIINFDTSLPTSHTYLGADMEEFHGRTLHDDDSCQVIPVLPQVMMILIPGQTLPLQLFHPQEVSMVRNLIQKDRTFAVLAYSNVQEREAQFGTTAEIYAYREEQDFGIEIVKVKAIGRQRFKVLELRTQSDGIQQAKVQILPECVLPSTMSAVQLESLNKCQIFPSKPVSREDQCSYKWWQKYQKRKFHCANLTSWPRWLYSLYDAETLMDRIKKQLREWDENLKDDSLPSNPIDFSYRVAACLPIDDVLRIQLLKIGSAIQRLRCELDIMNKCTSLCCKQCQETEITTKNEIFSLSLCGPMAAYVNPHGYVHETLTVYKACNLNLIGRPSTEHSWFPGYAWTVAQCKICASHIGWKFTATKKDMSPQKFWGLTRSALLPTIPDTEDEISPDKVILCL

[2] = test system: SH-SY5Y; assay: Downregulation of GSK3beta expression in human SH-SY5Y cells at 62.5 to 500 nM pretreated for 2 hrs followed by Abeta42 coincubation for 72 hrs by Westernblot analysis; type: functional, cell-based; details: dose 62.5-500 nM, time 74.0 hrs
[3] = biological target: T1, Protein cereblon/Glycogen synthase kinase-3 alpha (Homo sapiens, UniProt P49840+Q96SW2); assay: Protac activity at CRBN/GSK3alpha in human SH-SY5Y cells assessed as GSK3alpha degradation at 1 uM pretreated with pomalidomide for 2 hrs followed by compound addition and measured after 24 hrs; type: cell-based
Target sequence in this assay (P49840 2-483 limits assumed): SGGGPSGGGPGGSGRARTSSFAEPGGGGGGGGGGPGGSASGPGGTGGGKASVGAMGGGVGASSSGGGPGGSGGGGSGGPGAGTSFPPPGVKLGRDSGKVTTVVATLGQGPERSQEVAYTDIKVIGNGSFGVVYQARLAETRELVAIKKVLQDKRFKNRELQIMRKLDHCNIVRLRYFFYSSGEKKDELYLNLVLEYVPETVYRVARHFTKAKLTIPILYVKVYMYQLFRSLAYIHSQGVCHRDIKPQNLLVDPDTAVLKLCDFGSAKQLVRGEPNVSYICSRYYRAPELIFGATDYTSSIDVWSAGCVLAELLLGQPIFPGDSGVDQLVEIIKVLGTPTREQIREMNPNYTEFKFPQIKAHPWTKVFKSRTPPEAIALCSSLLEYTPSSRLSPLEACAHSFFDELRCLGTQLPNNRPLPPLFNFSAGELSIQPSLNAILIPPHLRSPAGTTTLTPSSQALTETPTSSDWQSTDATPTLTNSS
Target sequence in this assay (Q96SW2 whole entry partner): as the sequence (Q96SW2 whole entry, looked up) above

[4] = test system: SH-SY5Y; assay: Induction of apoptosis in human SH-SY5Y cells assessed as early apoptotic cells at 62.5 nM preincubated for 2 hrs followed by coincubation with Abeta42 and measured after 72 hrs by Annexin V-FITC/propidium iodide staining based flow cytometry (Rvb=1%); type: functional; details: time 74 hrs
[5] = test system: SH-SY5Y; assay: Induction of apoptosis in human SH-SY5Y cells assessed as live cells at 62.5 nM preincubated for 2 hrs followed by coincubation with Abeta42 and measured after 72 hrs by Annexin V-FITC/propidium iodide staining based flow cytometry (Rvb=94.8%); type: functional; details: time 74 hrs
[6] = test system: SH-SY5Y; assay: Cytotoxicity against human SH-SY5Y cells assessed as increase in cell viability at 62.5 to 250 nM pretreated for 2 hrs followed by Abeta42 addition and measured after 72 hrs by CCK8 assay; type: functional, cell-based; details: dose 62.5-250 nM, time 74.0 hrs
[7] = test system: SH-SY5Y; assay: Induction of apoptosis in human SH-SY5Y cells assessed as late apoptotic cells at 62.5 nM preincubated for 2 hrs followed by coincubation with Abeta42 and measured after 72 hrs by Annexin V-FITC/propidium iodide staining based flow cytometry (Rvb=3.5%); type: functional; details: time 74 hrs
[8] = test system: SH-SY5Y; assay: Effect on tau protein expression in human SH-SY5Y cells assessed as reduction on phosphorylated tau Ser404 residue level at 62.5 to 500 nM pretreated for 2 hrs followed by Abeta42 coincubation for 72 hrs by Westernblot analysis; type: functional, cell-based; details: dose 62.5-500 nM, time 74.0 hrs
[9] = biological target: T1, Protein cereblon/Glycogen synthase kinase-3 alpha; assay: Protac activity at CRBN/GSK3alpha in human SH-SY5Y cells assessed as induction of GSK3alpha protein degradation at 1 uM measured after 24 hrs; type: cell-based
Target sequence in this assay (P49840 2-483 limits assumed): as the sequence (P49840 2-483 limits assumed) above
Target sequence in this assay (Q96SW2 whole entry partner): as the sequence (Q96SW2 whole entry, looked up) above

[10] = biological target: Glycogen synthase kinase-3 alpha (Homo sapiens) (UniProt P49840); assay: Induction of GSK3alpha degradation in human SH-SY5Y cells assessed as maximum degradation at 1 uM measured after 9 hrs by western blot assay; type: cell-based
Sequence of Glycogen synthase kinase-3 alpha (Homo sapiens) (P49840 2-483 limits assumed): as the sequence (P49840 2-483 limits assumed) above

[11] = biological target: Glycogen synthase kinase-3 beta (Homo sapiens, UniProt P49841); assay: Binding affinity to recombinant GSK3beta (unknown origin) assessed as dissociation […] constant upto 0.00975 uM by SPR analysis
Sequence of Glycogen synthase kinase-3 beta (P49841 whole entry): as the sequence (P49841 whole entry, looked up) above

[12] = biological target: T1, Protein cereblon/Glycogen synthase kinase-3 alpha; assay: Protac activity at CRBN/GSK3alpha in human SH-SY5Y cells assessed as induction of GSK3alpha protein degradation measured after 24 hrs; type: cell-based
Target sequence in this assay (P49840 whole entry): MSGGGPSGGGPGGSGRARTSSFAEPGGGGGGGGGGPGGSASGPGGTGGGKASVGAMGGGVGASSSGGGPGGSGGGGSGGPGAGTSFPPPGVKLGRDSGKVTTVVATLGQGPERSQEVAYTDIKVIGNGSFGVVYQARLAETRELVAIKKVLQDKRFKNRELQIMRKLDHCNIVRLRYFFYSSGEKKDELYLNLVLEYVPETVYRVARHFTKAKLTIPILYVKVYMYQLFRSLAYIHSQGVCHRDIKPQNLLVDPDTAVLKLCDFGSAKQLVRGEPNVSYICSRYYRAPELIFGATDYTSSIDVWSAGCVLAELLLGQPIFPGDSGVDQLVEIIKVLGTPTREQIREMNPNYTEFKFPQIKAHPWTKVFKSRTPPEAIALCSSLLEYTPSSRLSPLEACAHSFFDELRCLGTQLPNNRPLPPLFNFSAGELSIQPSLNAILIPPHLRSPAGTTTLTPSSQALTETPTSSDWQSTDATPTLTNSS
Target sequence in this assay (Q96SW2 whole entry): as the sequence (Q96SW2 whole entry, looked up) above

[13] = test system: SH-SY5Y; assay: Induction of GSK3beta degradation in human SH-SY5Y cells assessed as maximum degradation at 1 uM measured after 9 hrs by western blot assay; type: cell-based
[14] = biological target: T1, Protein cereblon/Glycogen synthase kinase-3 alpha; assay: Protac activity at CRBN/GSK3alpha in human SH-SY5Y cells assessed as GSK3alpha degradation at 1 uM pretreated with MG-132 for 2 hrs followed by compound addition and measured after 24 hrs; type: cell-based
Target sequence in this assay (P49840 2-483 limits assumed): as the sequence (P49840 2-483 limits assumed) above
Target sequence in this assay (Q96SW2 whole entry partner): as the sequence (Q96SW2 whole entry, looked up) above

[15] = Downregulation of GSK3alpha expression in human SH-SY5Y cells accessed as fold change in GSK3alpha expression at 1 uM measured after 4 hrs by proteomic analysis; type: functional
[16] = Downregulation of GSK3beta expression in human SH-SY5Y cells accessed as fold change in GSK3beta expression at 1 uM measured after 4 hrs by proteomic analysis; type: functional
[17] = test system: SH-SY5Y; assay: Induction of apoptosis in human SH-SY5Y cells assessed as necrotic cells at 62.5 nM preincubated for 2 hrs followed by coincubation with Abeta42 and measured after 72 hrs by Annexin V-FITC/propidium iodide staining based flow cytometry (Rvb=0.7%); type: functional; details: time 74 hrs
[18] = test system: SH-SY5Y; assay: Induction of apoptosis in human SH-SY5Y cells assessed as necrotic cells at 125 nM preincubated for 2 hrs followed by coincubation with Abeta42 and measured after 72 hrs by Annexin V-FITC/propidium iodide staining based flow cytometry (Rvb=0.7%); type: functional; details: time 74 hrs
[19] = test system: SH-SY5Y; assay: Induction of apoptosis in human SH-SY5Y cells assessed as late apoptotic cells at 125 nM preincubated for 2 hrs followed by coincubation with Abeta42 and measured after 72 hrs by Annexin V-FITC/propidium iodide staining based flow cytometry (Rvb=3.5%); type: functional; details: time 74 hrs
[20] = test system: SH-SY5Y; assay: Induction of apoptosis in human SH-SY5Y cells assessed as early apoptotic cells at 125 nM preincubated for 2 hrs followed by coincubation with Abeta42 and measured after 72 hrs by Annexin V-FITC/propidium iodide staining based flow cytometry (Rvb=1%); type: functional; details: time 74 hrs
[21] = test system: SH-SY5Y; assay: Induction of apoptosis in human SH-SY5Y cells assessed as necrotic cells at 250 nM preincubated for 2 hrs followed by coincubation with Abeta42 and measured after 72 hrs by Annexin V-FITC/propidium iodide staining based flow cytometry (Rvb=0.7%); type: functional; details: time 74 hrs
[22] = test system: SH-SY5Y; assay: Induction of apoptosis in human SH--SY5Y cells assessed as late apoptotic cells at 250 nM preincubated for 2 hrs followed by coincubation with Abeta42 and measured after 72 hrs by Annexin V-FITC/propidium iodide staining based flow cytometry (Rvb=3.5%); type: functional; details: time 74 hrs
[23] = test system: SH-SY5Y; assay: Induction of apoptosis in human SH-SY5Y cells assessed as live cells at 250 nM preincubated for 2 hrs followed by coincubation with Abeta42 and measured after 72 hrs by Annexin V-FITC/propidium iodide staining based flow cytometry (Rvb=94.8%); type: functional; details: time 74 hrs
[24] = test system: SH-SY5Y; assay: Induction of apoptosis in human SH-SY5Y cells assessed as early apoptotic cells at 250 nM preincubated for 2 hrs followed by coincubation with Abeta42 and measured after 72 hrs by Annexin V-FITC/propidium iodide staining based flow cytometry (Rvb=1%); type: functional; details: time 74 hrs
[25] = test system: Rattus norvegicus; assay: Antialzheimer activity against okadaic acid induced Sprague-Dawley rat assessed as reduction in escape latency time to hidden platform at 200 to 600 uM, iv measured upto 5 days by Morris water maze test; type: functional, organism-based; details: dose 200-600 µM, time day <=5
[26] = biological target: T1, Protein cereblon/Glycogen synthase kinase-3 alpha; assay: Protac activity at CRBN/GSK3alpha in human SH-SY5Y cells assessed as induction of GSK3alpha degradation at 0.1 uM measured after 24 hrs; type: cell-based
Target sequence in this assay (P49840 2-483 limits assumed): as the sequence (P49840 2-483 limits assumed) above
Target sequence in this assay (Q96SW2 whole entry partner): as the sequence (Q96SW2 whole entry, looked up) above

[27] = biological target: hERG (KCNH2) (Homo sapiens, UniProt Q12809); assay: Inhibition of hERG expressed in CHO cells at 40 uM by whole cell patch clamp assay; type: cell-based; details: CHO cells that express hERG
Sequence of hERG (KCNH2) (Q12809 whole entry): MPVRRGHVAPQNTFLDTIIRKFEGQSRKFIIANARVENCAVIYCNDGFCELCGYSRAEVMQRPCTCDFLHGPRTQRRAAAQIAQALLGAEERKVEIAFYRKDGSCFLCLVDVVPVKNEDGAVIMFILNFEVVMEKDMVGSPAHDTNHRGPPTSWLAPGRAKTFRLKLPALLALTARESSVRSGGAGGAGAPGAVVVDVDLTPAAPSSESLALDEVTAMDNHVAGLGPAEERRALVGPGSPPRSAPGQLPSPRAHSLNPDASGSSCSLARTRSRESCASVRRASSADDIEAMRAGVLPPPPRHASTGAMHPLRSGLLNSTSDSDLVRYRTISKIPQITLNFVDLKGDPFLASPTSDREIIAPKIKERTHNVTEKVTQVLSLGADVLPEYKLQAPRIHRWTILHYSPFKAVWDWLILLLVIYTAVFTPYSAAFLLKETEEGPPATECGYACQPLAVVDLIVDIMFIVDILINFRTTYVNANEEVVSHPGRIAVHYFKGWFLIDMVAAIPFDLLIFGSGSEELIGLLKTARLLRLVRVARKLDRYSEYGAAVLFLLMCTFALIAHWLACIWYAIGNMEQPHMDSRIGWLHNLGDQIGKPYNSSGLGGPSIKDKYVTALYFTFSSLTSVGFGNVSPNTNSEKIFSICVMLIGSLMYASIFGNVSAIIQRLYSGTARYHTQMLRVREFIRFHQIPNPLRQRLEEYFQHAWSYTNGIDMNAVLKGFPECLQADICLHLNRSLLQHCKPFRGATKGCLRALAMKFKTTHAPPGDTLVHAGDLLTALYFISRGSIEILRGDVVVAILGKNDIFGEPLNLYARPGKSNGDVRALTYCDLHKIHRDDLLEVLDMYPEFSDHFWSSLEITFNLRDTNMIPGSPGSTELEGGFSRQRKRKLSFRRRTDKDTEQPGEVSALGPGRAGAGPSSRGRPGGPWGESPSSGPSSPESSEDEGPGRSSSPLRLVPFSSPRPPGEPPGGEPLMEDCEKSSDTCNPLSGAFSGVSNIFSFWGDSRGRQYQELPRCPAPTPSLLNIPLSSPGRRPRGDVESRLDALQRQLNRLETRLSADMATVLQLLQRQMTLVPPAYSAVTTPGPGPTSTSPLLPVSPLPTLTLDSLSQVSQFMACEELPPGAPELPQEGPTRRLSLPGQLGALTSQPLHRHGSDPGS

[28] = test system: Rattus norvegicus; assay: Antialzheimer activity against hippocampal tissue of okadaic acid induced Sprague-Dawley rat assessed as reduction on GSK3beta protein level at 200 to 600 uM, iv by western blot assay; type: functional, organism-based; details: Hippocampus, dose 200-600 µM
[29] = test system: Rattus norvegicus; assay: Antialzheimer activity against hippocampal tissue of okadaic acid induced Sprague-Dawley rat assessed as reduction on GSK3beta protein level at 200 to 600 uM, iv by immunohistochemical staining based analysis; type: functional, organism-based; details: Hippocampus, dose 200-600 µM
[30] = test system: Rattus norvegicus; assay: Antialzheimer activity against hippocampal tissue of okadaic acid induced Sprague-Dawley rat assessed as reduction on tau protein level at 200 to 600 uM, iv by immunohistochemical staining based analysis; type: functional, organism-based; details: Hippocampus, dose 200-600 µM

Compound: Nc1ncc(-c2ccc(S(=O)(=O)N3CCN(CCCCc4cn(CCOCCOCCOCCOCCOCCNc5cccc6c5C(=O)N(C5CCC(=O)NC5=O)C6=O)nn4)CC3)cc2)nc1C(=O)Nc1cccnc1 (stereo not given)
- Activity [1]: 90.8%
- Activity [2]: Dose-Dependent Effect
- Activity [3]: inactive
- Activity [4]: 1%
- Activity [5]: 79%
- Activity [6]: inactive
- Activity [7]: 14.3%
- Activity [8]: Dose-Dependent Effect
- Activity [9]: 94.3%
- Activity [10]: Active
- Kd [11]: 0.0253 s⁻¹
- DC50 [12]: 0.0283 µM
- Activity [13]: Active
- Activity [14]: inactive
- fold change (FC) [15]: 0.35
- fold change (FC) [16]: 0.33
- Activity [17]: 6.7%
- Activity [18]: 3.3%
- Activity [19]: 12.5%
- Activity [20]: 1.2%
- Activity [21]: 2.8%
- Activity [22]: 6.5%
- Activity [23]: 89.5%
- Activity [24]: 1.2%
- Activity [25]: inactive
- Activity [26]: 74.4%
- inhibition at 40 µM [27]: 15.4%
- Activity [28]: Active
- Activity [29]: Active
- Activity [30]: Active
